Assay results published in patent US20070128217A1 (priority 2003, published 2007).

Experiments:
[1] = tested on: rabbit serum obtained by immunizing a rabbit with the SARS-CoV strain Frankfurt 1; assay type: binding; set-up: Binding of a rabbit serum to linear peptides / Binding of a rabbit serum to looped peptides / Rabbit serum linear peptides / Rabbit serum looped peptides / Binding of a rabbit serum to linear peptides of protein N of SARS-CoV Urbani (Rabbit serum linear peptides) / Binding of a rabbit serum to looped/cyclic peptides of protein N of SARS-CoV Urbani (Rabbit serum looped peptides): unit not given here
[2] = tested on: antibodies in sera from SARS patients (sera 1a, 1b, 2, 6, 37, 62, London, SARS-yellow, SARS-green); assay type: binding, human; set-up: Binding of serum 6 to linear peptides of protein X1 of SARS-CoV Urbani / Binding of serum 37 to linear peptides of protein X1 of SARS-CoV Urbani / Binding of serum 6 to looped/cyclic peptide (PEPSCAN-ELISA) / Binding of serum 37 to looped/cyclic peptide (PEPSCAN-ELISA) / Binding of serum 37 to looped/cyclic peptides of protein X1 of SARS-CoV Urbani / Binding of serum 6 to linear peptides of protein X2 / Binding of serum 37 to linear peptides of protein X2 / Binding of serum 37 to looped/cyclic peptides of protein X2 of SARS-CoV Urbani / Binding of serum 6 to linear peptides of protein M of SARS-CoV Urbani / Binding of serum 37 to linear peptides of protein M of SARS-CoV Urbani / Binding of serum 6 to looped/cyclic peptides of protein M of SARS-CoV Urbani / Binding of serum 37 to looped/cyclic peptides of protein M of SARS-CoV Urbani / Binding of serum 6 to linear peptides of protein X3 of SARS-CoV Urbani / Binding of serum 37 to linear peptides of protein X3 of SARS-CoV Urbani / Binding of serum 37 to looped/cyclic peptides of protein X3 of SARS-CoV Urbani / Binding of serum 6 to linear peptides of protein X4 of SARS-CoV Urbani / Binding of serum 37 to linear peptides of protein X4 of SARS-CoV Urbani / Binding of serum 37 to looped/cyclic peptides of protein X4 of SARS-CoV Urbani / Binding of serum 6 to linear peptides of protein X5 of SARS-CoV Urbani / Binding of serum 37 to linear peptides of protein X5 of SARS-CoV Urbani / Binding of serum 37 to looped/cyclic peptides of protein X5 of SARS-CoV Urbani / Binding of serum 6 to linear peptides of protein N of SARS-CoV Urbani / Binding of serum 37 to linear peptides of protein N of SARS-CoV Urbani / Binding of serum 6 to linear peptide (PEPSCAN-ELISA) / Binding of serum 1a to looped/cyclic peptides of protein N of SARS-CoV Urbani / Binding of serum 1b to looped/cyclic peptides of protein N of SARS-CoV Urbani / Binding of serum 2 to looped/cyclic peptides of protein N of SARS-CoV Urbani / Binding of serum 6 to looped/cyclic peptides of protein N of SARS-CoV Urbani / Binding of serum 37 to looped/cyclic peptides of protein N of SARS-CoV Urbani / Binding of serum 62 to looped/cyclic peptides of protein N of SARS-CoV Urbani / Binding of serum London to looped/cyclic peptides of protein N of SARS-CoV Urbani / Binding of serum SARS-green to looped/cyclic peptides of protein N of SARS-CoV Urbani: unit not given here
[3] = tested on: control sera (pooled serum of ten healthy LUMC hospital workers; commercial negative donor pooled serum from the Dutch bloodbank); assay type: binding, human; set-up: Binding of Control serum LUMC to linear peptides / Binding of Control serum Blood-bank to linear peptides / Binding of Control serum LUMC to looped peptides / Binding of Control Serum Blood-Bank to Looped peptides / Binding of Control serum LUMC to linear peptides of the protein M of SARS-CoV Urbani / Binding of Control serum Blood-bank to linear peptides of the protein M of SARS-CoV Urbani / Binding of Control serum LUMC to looped peptides of the protein M of SARS-CoV Urbani / Binding of Control Serum Blood-Bank to Looped peptides of the protein M of SARS-CoV Urbani: unit not given here

AWLCALGKVLPFHRW was tested, and the “Rabbit serum linear peptides” value [1] was 0.8, the “Rabbit serum looped peptides” value [1] was 0.6 and the “Binding of serum 1a to linear peptides of protein X5 of SARS-CoV Urbani” value [2] was 0.8. The “Binding of serum 1a to looped/cyclic peptides of protein X5 of SARS-CoV Urbani” value [2] was 0.4, the “Binding of serum 1b to linear peptides of protein X5 of SARS-CoV Urbani” value [2] was 0.6 and the “Binding of serum 1b to looped/cyclic peptides of protein X5 of SARS-CoV Urbani” value [2] was 0.3. The “Binding of serum 2 to linear peptides of protein X5 of SARS-CoV Urbani” value [2] was 0.8, the “Binding of serum 2 to looped/cyclic peptides of protein X5 of SARS-CoV Urbani” value [2] was 0.5 and the “Binding of serum 6 to linear peptides of protein X5 of SARS-CoV Urbani” value [2] was 0.6. For the same sequence, the “Binding of serum 6 to looped/cyclic peptides of protein X5 of SARS-CoV Urbani” value [2] was 0.4, the “Binding of serum 37 to linear peptides of protein X5 of SARS-CoV Urbani” value [2] was 0.8 and the “Binding of serum 37 to looped/cyclic peptides of protein X5 of SARS-CoV Urbani” value [2] was 0.5. The “Binding of serum 62 to linear peptides of protein X5 of SARS-CoV Urbani” value [2] was 0.9, the “Binding of serum 62 to looped/cyclic peptides of protein X5 of SARS-CoV Urbani” value [2] was 0.7 and the “Binding of serum London to linear peptides of protein X5 of SARS-CoV Urbani” value [2] was 0.8. The “Binding of serum London to looped/cyclic peptides of protein X5 of SARS-CoV Urbani” value [2] was 0.2, the “Binding of serum SARS-green to linear peptides of protein X5 of SARS-CoV Urbani” value [2] was 0.6 and the “Binding of serum SARS-green to looped/cyclic peptides of protein X5 of SARS-CoV Urbani” value [2] was 0.5. For the same sequence, the “Binding of serum SARS-yellow to linear peptides of protein X5 of SARS-CoV Urbani” value [2] was 0.2, the “Binding of serum SARS-yellow to looped/cyclic peptides of protein X5 of SARS-CoV Urbani” value [2] was 0.5 and the “Binding of Control Serum Blood-Bank to Looped peptides” value [3] was 0.4. For the same sequence, the “Binding of Control serum Blood-bank to linear peptides” value [3] was 0.9, the “Binding of Control serum LUMC to linear peptides” value [3] was 0.6 and the “Binding of Control serum LUMC to looped peptides” value [3] was 0.5.
With AYNRYRIGNYKLNTD the “Rabbit serum linear peptides” value [1] was 0.3, the “Rabbit serum looped peptides” value [1] was 0.3 and the “Binding of serum 1a to linear peptides of protein M of SARS-CoV Urbani” value [2] was 0.7. For the same sequence, the “Binding of serum 1a to looped/cyclic peptides of protein M of SARS-CoV Urbani” value [2] was 0.8, the “Binding of serum 1b to linear peptides of protein M of SARS-CoV Urbani” value [2] was 0.2 and the “Binding of serum 1b to looped/cyclic peptides of protein M of SARS-CoV Urbani” value [2] was 0.7. The “Binding of serum 2 to linear peptides of protein M of SARS-CoV Urbani” value [2] was 0.3, the “Binding of serum 2 to looped/cyclic peptides of protein M of SARS-CoV Urbani” value [2] was 0.5 and the “Binding of serum 6 to linear peptides of protein M of SARS-CoV Urbani” value [2] was 0.4. For the same sequence, the “Binding of serum 6 to looped/cyclic peptides of protein M of SARS-CoV Urbani” value [2] was 1.0, the “Binding of serum 37 to linear peptides of protein M of SARS-CoV Urbani” value [2] was 0.5 and the “Binding of serum 37 to looped/cyclic peptides of protein M of SARS-CoV Urbani” value [2] was 0.6. The “Binding of serum 62 to linear peptides of protein M of SARS-CoV Urbani” value [2] was 0.7, the “Binding of serum 62 to looped/cyclic peptides of protein M of SARS-CoV Urbani” value [2] was 0.6 and the “Binding of serum London to linear peptides of protein M of SARS-CoV Urbani” value [2] was 0.5. The “Binding of serum London to looped/cyclic peptides of protein M of SARS-CoV Urbani” value [2] was 0.4, the “Binding of serum SARS-green to linear peptides of protein M of SARS-CoV Urbani” value [2] was 0.2 and the “Binding of serum SARS-green to looped/cyclic peptides of protein M of SARS-CoV Urbani” value [2] was 0.2. For the same sequence, the “Binding of serum SARS-yellow to linear peptides of protein M of SARS-CoV Urbani” value [2] was 0.0, the “Binding of serum SARS-yellow to looped/cyclic peptides of protein M of SARS-CoV Urbani” value [2] was 0.6 and the “Binding of Control Serum Blood-Bank to Looped peptides of the protein M of SARS-CoV Urbani” value [3] was 0.6. For the same sequence, the “Binding of Control serum Blood-bank to linear peptides of the protein M of SARS-CoV Urbani” value [3] was 0.6, the “Binding of Control serum LUMC to linear peptides of the protein M of SARS-CoV Urbani” value [3] was 0.3 and the “Binding of Control serum LUMC to looped peptides of the protein M of SARS-CoV Urbani” value [3] was 0.7.
In the case of AYSNRNRFLYIIKLV, the “Rabbit serum linear peptides” value [1] is reported as 0.3, the “Rabbit serum looped peptides” value [1] is reported as 0.5 and the “Binding of serum 1a to linear peptides of protein M of SARS-CoV Urbani” value [2] is reported as 0.7. The “Binding of serum 1b to linear peptides of protein M of SARS-CoV Urbani” value [2] was 0.6, the “Binding of serum 2 to linear peptides of protein M of SARS-CoV Urbani” value [2] was 0.6 and the “Binding of serum 6 to linear peptides of protein M of SARS-CoV Urbani” value [2] was 0.6. For the same sequence, the “Binding of serum 37 to linear peptides of protein M of SARS-CoV Urbani” value [2] was 0.4, the “Binding of serum 62 to linear peptides of protein M of SARS-CoV Urbani” value [2] was 0.5 and the “Binding of serum London to linear peptides of protein M of SARS-CoV Urbani” value [2] was 0.3. For the same sequence, the “Binding of serum SARS-green to linear peptides of protein M of SARS-CoV Urbani” value [2] was 0.5, the “Binding of serum SARS-yellow to linear peptides of protein M of SARS-CoV Urbani” value [2] was 0.2 and the “Recognition of the peptide by sera of SARS-CoV infected individuals, and form (linear, looped/cyclic) in which it is recognized” value [2] was “recognized in looped/cyclic form”. The “Binding of Control Serum Blood-Bank to Looped peptides of the protein M of SARS-CoV Urbani” value [3] was 0.6, the “Binding of Control serum Blood-bank to linear peptides of the protein M of SARS-CoV Urbani” value [3] was 0.7 and the “Binding of Control serum LUMC to linear peptides of the protein M of SARS-CoV Urbani” value [3] was 0.7. The “Binding of Control serum LUMC to looped peptides of the protein M of SARS-CoV Urbani” value [3] was 0.8.
